Test results reported in patent US20240051985A1, “METTL3 MODULATORS” (ACCENT THERAPEUTICS, INC., priority 2020, published 2024).
pIC50: −log10 of the molar value.

Assays:
METTL3/METTL14 = METTL3/METTL14 (Homo sapiens, UniProt Q86U44); experiment: METTL3-14 standard enzyme assay (3H-SAM flashplate); settings: Table 4; METTL3 biochemical assay
Procedure, shortened: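 METTL3/METTL14 (2.5 nM) preincubated 5 min, then reacted with 3′-biotinylated RNA UCUGGACUAAA (100 nM) and 3H-SAM (100 nM) for 30 min at ambient temperature in 20 mM HEPES pH 7.5, 50 mM KCl, 250 μM MgCl2, 1 mM DTT. Quenched with 15 μM cold SAM; product captured on streptavidin flashplates, scintillation counted.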

PRMT5-MEP50 = PRMT5-MEP50 (Homo sapiens, UniProt O14744); experiment: PRMT5 assay (3H-SAM flashplate); settings: Table 4; PRMT5 biochemical assay
Description: Assays were performed in a 25 μl-volume in 384-well V-bottom polypropylene microplates (Greiner Bio-One, cat. No. 781280) at ambient temperature. Optimized 1× assay buffer was 20 mM Tris-HCl pH 8.0, 1 mM DTT, […]. For compound screening PRMT5-MEP50 (final concentration, f.c.=2.5 nM) was added using a Multidrop Combi (ThermoFisher Scientific, Waltham, MA) and preincubated for 5 min. Reactions were started by adding 3′ biotinylated histone H4 peptide acetylated on serine 1 (Ac-[…]-Biotin) (f.c.=100 nM) and 3H-SAM (f.c.=250 nM) substrates. Reactions proceeded for 60 minutes and were quenched with excess non-radioactive SAM (f.c.=15 μM). The reactions were then transferred to streptavidin-coated flashplates and incubated for 2 hours at 25° C. Following two washing cycles with 0.1% Tween-20, the plates were sealed and read on a TopCount (PerkinElmer, Waltham, MA) plate-based scintillation counter. For determination of kinetic parameters, reaction times were optimized so that measurements were taken during the initial velocity phase of the reaction.

FLT3 = molecular target: T1, FLT3 (Homo sapiens, UniProt P36888); experiment: FLT3 Caliper assay; format: biochemical; settings: Table 4; read-out: FLT3 Calipher assay IC50
T1 sequence (P36888 27-993): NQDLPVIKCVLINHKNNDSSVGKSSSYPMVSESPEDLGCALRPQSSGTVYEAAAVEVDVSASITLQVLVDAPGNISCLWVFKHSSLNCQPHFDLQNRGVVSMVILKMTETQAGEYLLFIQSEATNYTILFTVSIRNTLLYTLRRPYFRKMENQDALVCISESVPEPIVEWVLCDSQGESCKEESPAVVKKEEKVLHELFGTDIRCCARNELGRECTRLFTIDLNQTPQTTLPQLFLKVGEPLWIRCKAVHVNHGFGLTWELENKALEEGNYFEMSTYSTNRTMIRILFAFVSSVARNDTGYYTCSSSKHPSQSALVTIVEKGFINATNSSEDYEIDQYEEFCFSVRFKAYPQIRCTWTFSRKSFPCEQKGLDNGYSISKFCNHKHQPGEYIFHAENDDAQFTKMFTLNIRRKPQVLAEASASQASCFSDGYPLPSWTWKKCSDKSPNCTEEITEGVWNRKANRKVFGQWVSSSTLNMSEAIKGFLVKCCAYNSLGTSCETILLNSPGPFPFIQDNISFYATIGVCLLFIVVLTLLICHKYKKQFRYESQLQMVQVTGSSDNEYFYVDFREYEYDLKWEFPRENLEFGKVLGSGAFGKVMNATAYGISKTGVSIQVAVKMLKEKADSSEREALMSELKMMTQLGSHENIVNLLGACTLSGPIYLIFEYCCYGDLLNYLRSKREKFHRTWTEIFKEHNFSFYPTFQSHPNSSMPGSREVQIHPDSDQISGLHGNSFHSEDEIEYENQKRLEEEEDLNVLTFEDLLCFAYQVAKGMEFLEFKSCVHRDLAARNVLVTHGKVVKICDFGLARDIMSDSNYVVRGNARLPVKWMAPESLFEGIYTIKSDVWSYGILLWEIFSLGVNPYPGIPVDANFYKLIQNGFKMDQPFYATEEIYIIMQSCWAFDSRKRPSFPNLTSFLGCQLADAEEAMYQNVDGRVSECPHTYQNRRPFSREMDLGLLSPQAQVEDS
Description: (§1) FLT3/FLT3-ITD Caliper Assays
(§2) Assays were performed in a 20 μl-volume in 384-well polypropylene microplates (Perkin Elmer Proxiplate, cat. No. 6059480) at ambient temperature. Optimized 1× assay buffer was 50 mM Hepes pH 7.5, 2 mM DTT, 0.01% Tween, 0.01% BSA, 10 mM MgCl2. For compound screening FLT3 (final concentration, f.c.=0.9 nM) or FLT3-ITD (f.c.=7 nM) was added using a Multidrop Combi (ThermoFisher Scientific, Waltham, MA) and preincubated for 10 min. Reactions were started by adding fluorescein-peptide (sequence 5-FAM-EAIYAAPFAKKK-CONH2) (f.c.=300 μM) and ATP (FLT3 f.c.=97 μM FLT3-ITD f.c.=146 μM) substrates. Reactions proceeded for 60 minutes. The reactions were stopped with LabChip ProfilerPro Separation Buffer containing EDTA (f.c.=20 mM). The plates were read on a Caliper microfluidics reader (PerkinElmer, Waltham, MA).

FLT3-ITD = molecular target: T2, FLT3-ITD (Homo sapiens, UniProt P36888); experiment: FLT3-ITD Caliper assay; format: biochemical; settings: Table 4; read-out: FLT3-ITD Calipher assay IC50
T2 sequence (P36888 1-993): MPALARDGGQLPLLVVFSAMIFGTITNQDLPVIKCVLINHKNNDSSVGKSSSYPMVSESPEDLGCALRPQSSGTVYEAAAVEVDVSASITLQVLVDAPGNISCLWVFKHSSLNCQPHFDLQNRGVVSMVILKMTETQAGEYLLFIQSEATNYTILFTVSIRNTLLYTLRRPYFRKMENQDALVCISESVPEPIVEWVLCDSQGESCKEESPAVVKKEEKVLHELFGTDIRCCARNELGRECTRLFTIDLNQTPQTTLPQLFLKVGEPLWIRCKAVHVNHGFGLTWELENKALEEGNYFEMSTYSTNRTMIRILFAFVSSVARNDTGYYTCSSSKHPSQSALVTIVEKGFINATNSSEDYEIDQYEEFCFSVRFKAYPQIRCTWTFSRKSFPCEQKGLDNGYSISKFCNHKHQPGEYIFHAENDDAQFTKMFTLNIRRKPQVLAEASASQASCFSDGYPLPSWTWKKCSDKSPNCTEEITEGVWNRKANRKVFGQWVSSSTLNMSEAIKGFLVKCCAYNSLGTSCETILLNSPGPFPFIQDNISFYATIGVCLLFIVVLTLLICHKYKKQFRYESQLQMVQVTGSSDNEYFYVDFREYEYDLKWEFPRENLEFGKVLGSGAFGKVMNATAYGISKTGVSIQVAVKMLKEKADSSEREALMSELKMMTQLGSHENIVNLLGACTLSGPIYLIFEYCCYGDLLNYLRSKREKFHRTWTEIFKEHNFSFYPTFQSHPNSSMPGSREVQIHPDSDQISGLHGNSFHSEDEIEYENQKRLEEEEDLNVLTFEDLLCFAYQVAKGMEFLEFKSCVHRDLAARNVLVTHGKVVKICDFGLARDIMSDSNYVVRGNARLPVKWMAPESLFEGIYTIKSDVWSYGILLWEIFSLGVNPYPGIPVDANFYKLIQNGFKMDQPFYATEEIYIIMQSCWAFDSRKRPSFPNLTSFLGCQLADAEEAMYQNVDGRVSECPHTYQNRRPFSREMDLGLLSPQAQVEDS
Description: as §1, §2

Sequence of METTL3/METTL14 (Q86U44 whole entry, species assumed): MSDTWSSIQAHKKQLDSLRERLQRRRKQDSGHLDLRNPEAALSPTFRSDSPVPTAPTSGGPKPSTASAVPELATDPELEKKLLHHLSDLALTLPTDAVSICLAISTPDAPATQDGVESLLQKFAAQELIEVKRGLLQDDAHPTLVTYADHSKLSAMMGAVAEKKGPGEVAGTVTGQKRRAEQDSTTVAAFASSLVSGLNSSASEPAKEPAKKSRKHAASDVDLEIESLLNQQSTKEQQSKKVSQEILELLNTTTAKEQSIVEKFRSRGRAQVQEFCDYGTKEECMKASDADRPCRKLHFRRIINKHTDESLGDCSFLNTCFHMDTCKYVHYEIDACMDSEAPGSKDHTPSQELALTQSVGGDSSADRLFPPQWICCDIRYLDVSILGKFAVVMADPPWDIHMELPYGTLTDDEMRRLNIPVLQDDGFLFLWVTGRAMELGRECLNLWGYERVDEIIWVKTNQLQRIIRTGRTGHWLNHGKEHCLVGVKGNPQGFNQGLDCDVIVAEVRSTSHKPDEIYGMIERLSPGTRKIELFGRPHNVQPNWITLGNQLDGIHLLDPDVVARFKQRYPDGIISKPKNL
Sequence of METTL3/METTL14 (Q9HCE5 whole entry partner, species assumed): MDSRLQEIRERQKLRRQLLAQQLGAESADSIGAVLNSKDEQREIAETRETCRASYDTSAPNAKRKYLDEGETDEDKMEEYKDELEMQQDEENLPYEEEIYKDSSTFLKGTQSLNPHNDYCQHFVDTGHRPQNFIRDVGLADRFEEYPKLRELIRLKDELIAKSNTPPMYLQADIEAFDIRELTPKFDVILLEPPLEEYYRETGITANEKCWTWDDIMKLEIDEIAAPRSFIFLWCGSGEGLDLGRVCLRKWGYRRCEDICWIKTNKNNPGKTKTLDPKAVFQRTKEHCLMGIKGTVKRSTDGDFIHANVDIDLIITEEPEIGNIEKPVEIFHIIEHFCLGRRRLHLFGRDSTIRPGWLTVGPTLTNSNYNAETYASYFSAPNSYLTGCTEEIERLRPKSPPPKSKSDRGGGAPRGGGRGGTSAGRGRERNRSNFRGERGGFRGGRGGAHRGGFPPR
Sequence of PRMT5-MEP50 (O14744 whole entry): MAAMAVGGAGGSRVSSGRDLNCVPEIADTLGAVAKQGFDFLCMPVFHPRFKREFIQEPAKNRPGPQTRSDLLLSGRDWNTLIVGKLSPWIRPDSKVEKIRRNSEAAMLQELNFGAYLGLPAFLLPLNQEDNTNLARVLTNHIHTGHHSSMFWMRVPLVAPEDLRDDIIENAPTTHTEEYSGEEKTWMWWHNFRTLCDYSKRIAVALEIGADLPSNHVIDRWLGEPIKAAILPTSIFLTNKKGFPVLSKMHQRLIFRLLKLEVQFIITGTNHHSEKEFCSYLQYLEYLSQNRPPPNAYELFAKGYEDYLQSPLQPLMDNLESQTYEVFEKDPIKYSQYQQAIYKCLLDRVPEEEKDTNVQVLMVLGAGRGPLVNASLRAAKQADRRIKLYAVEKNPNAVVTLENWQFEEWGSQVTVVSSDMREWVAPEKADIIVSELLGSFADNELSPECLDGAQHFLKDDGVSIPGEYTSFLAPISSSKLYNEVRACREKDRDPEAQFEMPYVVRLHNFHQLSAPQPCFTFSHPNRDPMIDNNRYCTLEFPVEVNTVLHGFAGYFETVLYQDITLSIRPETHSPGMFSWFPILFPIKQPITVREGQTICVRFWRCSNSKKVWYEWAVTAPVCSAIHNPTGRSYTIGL
Sequence of PRMT5-MEP50 (Q9BQA1 whole entry partner): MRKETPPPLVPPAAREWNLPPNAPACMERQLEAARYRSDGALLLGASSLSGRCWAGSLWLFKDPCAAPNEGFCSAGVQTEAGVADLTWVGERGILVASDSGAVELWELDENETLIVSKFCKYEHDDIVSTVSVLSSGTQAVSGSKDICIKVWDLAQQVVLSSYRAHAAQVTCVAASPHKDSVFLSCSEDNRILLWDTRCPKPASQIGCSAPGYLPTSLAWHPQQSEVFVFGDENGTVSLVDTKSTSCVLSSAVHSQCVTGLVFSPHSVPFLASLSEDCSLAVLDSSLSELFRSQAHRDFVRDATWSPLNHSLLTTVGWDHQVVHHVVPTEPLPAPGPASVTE

Compound | pIC50 (METTL3/METTL14) | pIC50 (PRMT5-MEP50) | pIC50 (FLT3) | pIC50 (FLT3-ITD)
CC(=O)N1CCC(NC(=O)[C@H]2O[C@@H](n3cc(-c4ccn(C)n4)c4c(N)ncnc43)[C@H](O)[C@@H]2O)CC1 [Compound I-37] | ≤ 6.00 | ≤ 6.00 | ≤ 6.00 | ≤ 6.00
Cn1ccc(-c2cn([C@@H]3O[C@H](C(=O)Nc4cccnc4)[C@@H](O)[C@H]3O)c3ncnc(N)c23)n1 [Compound I-156] | 6.00 to 7.00 | 7.00 to 8.00 | ≤ 6.00 | ≤ 6.00
Cn1ccc(-c2cn([C@@H]3O[C@H](C(=O)NCC4(O)CCNCC4)[C@@H](O)[C@H]3O)c3ncnc(N)c23)n1 [Compound I-198] | 6.00 to 7.00 | 7.00 to 8.00 | ≤ 6.00 | ≤ 6.00
Cn1ccc(-c2cn([C@@H]3O[C@H](C(=O)Nc4cc(NC5CCC5)ncn4)[C@@H](O)[C@H]3O)c3ncnc(N)c23)n1 [Compound I-164] | ≤ 6.00 | 6.00 to 7.00 | ≤ 6.00 | ≤ 6.00
Cn1ccc(-c2cn([C@@H]3O[C@H](C(=O)NCCc4cccnc4)[C@@H](O)[C@H]3O)c3ncnc(N)c23)n1 [Compound I-160] | ≤ 6.00 | 7.00 to 8.00 | ≤ 6.00 | ≤ 6.00
Cn1ccc(-c2cn([C@@H]3O[C@H](C(=O)Nc4ccc5ccc(N6CCC6)nc5c4)[C@@H](O)[C@@H]3F)c3ncnc(N)c23)n1 [Compound I-33, (2S,3R,4S,5R)-5-[4-amino-5-(1-methyl-1H-pyrazol-3-yl)-7H-pyrrolo[2,3-d]pyrimidin-7-yl]-N-[2-(azetidin-1-yl)quinolin-7-yl]-4-fluoro-3-hydroxyoxolane-2-carboxamide] | > 8.00 | ≤ 6.00 | ≤ 6.00 | ≤ 6.00
Cn1ccc(-c2cn([C@@H]3O[C@H](C(=O)N[C@@H]4CCC(=O)NC4)[C@@H](O)[C@H]3O)c3ncnc(N)c23)n1 [Compound I-180] | ≤ 6.00 | ≤ 6.00 | ≤ 6.00 | ≤ 6.00
Cn1ccc(-c2cn([C@@H]3O[C@H](C(=O)N[C@H]4CCC(=O)NC4)[C@@H](O)[C@H]3O)c3ncnc(N)c23)n1 [Compound I-179] | ≤ 6.00 | ≤ 6.00 | ≤ 6.00 | ≤ 6.00
CCNc1ccnc(NC(=O)[C@H]2O[C@@H](n3cc(-c4ccn(C)n4)c4c(N)ncnc43)[C@H](O)[C@@H]2O)n1 [Compound I-36] | ≤ 6.00 | 6.00 to 7.00 | ≤ 6.00 | ≤ 6.00
Cn1ccc(-c2cn([C@@H]3O[C@H](C(=O)Nc4cc(NCC(F)F)ccn4)[C@@H](O)[C@H]3O)c3ncnc(N)c23)n1 [Compound I-169] | 6.00 to 7.00 | 6.00 to 7.00 | ≤ 6.00 | ≤ 6.00
CNc1cccc(CCNC(=O)[C@H]2O[C@@H](n3cc(-c4ccn(C)n4)c4c(N)ncnc43)[C@H](O)[C@@H]2O)n1 [Compound I-193] | 6.00 to 7.00 | ≤ 6.00 | ≤ 6.00 | ≤ 6.00
Cn1ccc(-c2cn([C@@H]3O[C@H](C(=O)Nc4cc[nH]n4)[C@@H](O)[C@H]3O)c3ncnc(N)c23)n1 [Compound I-170] | ≤ 6.00 | ≤ 6.00 | 6.00 to 7.00 | 6.00 to 7.00
Cn1ccc(-c2cn([C@@H]3O[C@H](C(=O)Nc4ccon4)[C@@H](O)[C@H]3O)c3ncnc(N)c23)n1 [Compound I-171] | ≤ 6.00 | ≤ 6.00 | ≤ 6.00 | ≤ 6.00
Cn1ccc(-c2cn([C@@H]3O[C@H](C(=O)Nc4cc(F)cc(F)c4)[C@@H](O)[C@H]3O)c3ncnc(N)c23)n1 [Compound I-158] | ≤ 6.00 | 6.00 to 7.00 | ≤ 6.00 | ≤ 6.00
Cn1ccc(-c2cn([C@@H]3O[C@H](C(=O)NCc4cc(F)cc(F)c4)[C@@H](O)[C@H]3O)c3ncnc(N)c23)n1 [Compound I-191] | 6.00 to 7.00 | 6.00 to 7.00 | ≤ 6.00 | ≤ 6.00
Cn1ccc(-c2cn([C@@H]3O[C@H](C(=O)NCC#N)[C@@H](O)[C@H]3O)c3ncnc(N)c23)n1 [Compound I-229] | ≤ 6.00 | ≤ 6.00 | ≤ 6.00 | ≤ 6.00
Cn1ccc(-c2cn([C@@H]3O[C@H](C(=O)Nc4ccnc(NC5CCC5)c4)[C@@H](O)[C@H]3O)c3ncnc(N)c23)n1 [Compound I-167] | 6.00 to 7.00 | 6.00 to 7.00 | ≤ 6.00 | ≤ 6.00
Nc1ncnc2c1ccn2[C@@H]1O[C@H](C(=O)Nc2ccc3ccc(N4CCC4)nc3c2)[C@@H](O)[C@@H]1F [Compound I-34, (2S,3R,4S,5R)-5-{4-amino-7H-pyrrolo[2,3-d]pyrimidin-7-yl}-N-[2-(azetidin-1-yl)quinolin-7-yl]-4-fluoro-3-hydroxyoxolane-2-carboxamide] | 7.00 to 8.00 | ≤ 6.00 | ≤ 6.00 | ≤ 6.00
Cn1ccc(-c2cn([C@@H]3O[C@H](C(=O)Nc4ccccc4)[C@@H](O)[C@H]3O)c3ncnc(N)c23)n1 [Compound I-173] | 6.00 to 7.00 | – | ≤ 6.00 | ≤ 6.00
